{"source": "patent US20040259889A1", "about": "“Methods of treating pulmonary disease” (priority 2001, published 2004)", "key": {"[1]": {"test_system": "pacing heart failure preparations (Yorkshire pigs)", "experiment": "Systemic and pulmonary hemodynamics after A1 adenosine receptor antagonist infusion in pacing heart failure pigs (Example 1)", "format": "in vivo, pig", "description": "Nineteen Yorkshire pigs (20-25 kg, male Hambone Farms, SC) were instrumented in order to induce pacing cardiac heart failure as described in Tomita et al., Circulation, 83, pp. 635-644 (1991). Briefly, under isoflurane anesthesia (3% in 1.5 L/min of oxygen) and through a left thoracotomy, a shielded stimulated electrode was sutured onto the left atrium, connected to a modified programmable pacemaker (8329 Medtronic, Inc., Minneapolis, Minn.) and buried in a subcutaneous pocket. Ten to fourteen days following recovery from the surgical procedure, a baseline echocardiographic study was performed and pacing initiate at 240 beats/min for 3 weeks. An additional group of 7 normal control animals were cared for in identical fashion with the exception of the pacing protocol. At the conclusion of the 3-week pacing period, the pacemakers were de-activated and echocardiographic studies were performed. For these studies, the animals were brought to the laboratory and the pacemakers were deactivated. Two-dimensional and M-mode echocardiographic studies (ATL Ulmark VI, 2.25 MHz transducer, Bothell, Wash.) were used to image the left ventricle from a right parasternal approach. Following the echocardiographic study, the animals were prepared for acute instrumentation and initiation of the study protocol.\nThe pigs were anesthetized with intravenous boluses of sufentanyl 2.0 μg/kg, etomidate 0.3 mg/kg, and vecuronium 10 mg, after which a tracheostomy was performed. A tubocurarine 12 mg intravenous bolus was administered after obtaining arterial pressure. Anesthesia was maintained throughout the procedure by continuous intravenous infusions of morphine sulfate 3 mg/kg/hr and tubocurarine 2 mg/hr. Etomidate 0.1 mg/kg intravenous was also given at 30 minute intervals. A maintenance infusion of 10 ml/kg/hr of lactated Ringer's solution was maintained throughout the protocol. […] A multi-lumened thermodilution catheter (7.5 Fr, Baxter Healthcare Corp., Irvine, Calif.) was positioned in a pulmonary artery via the right external jugular vein and a large bore catheter (7 Fr) was placed in the left external jugular vein for fluid administration. The carotid artery was exposed and cannulated, and the catheter (7 Fr) was advanced to the aortic root for aortic blood pressure measurements and blood samplings.\nFollowing instrumentation and a 15-minute stabilization period, baseline hemodynamics were recorded and digitized. Thermodilution derived cardiac output and ejection fraction were obtained from the pulmonary artery catheter in triplicate. All measurements were simultaneously recorded with the ventilator temporarily suspended in order to prevent respiratory artifact the recordings. An arterial sample was drawn for electrolyte assays. Pulmonary and systemic vascular resistances were computed from the thermodilution cardiac output and pressure measurements using standard formulae.\nFollowing instrumentation and collection of baseline measurements, the animals were randomly assigned to receive either vehicle infusion (polyethylene glycol, 3 ml intravenous, n=10) or the A1 adenosine receptor antagonist (1 mg/kg 1,8-(3-Oxa-tricyclo[3.2.1.0^2,4]oct-6-yl)-1,3-dipropyl-3,7-dihydro-purine-2,6-dione (BG9719); n=9). Following infusion of vehicle or BG9719, the hemodynamic measurements described in the previous section were repeated at 10, 30, 60, 90, 120 minutes post infusion.\nChanges in hemodynamics were initially examined between the control and A1 adenosine receptor antagonist (BG9719) groups by ANOVA. Comparisons between these baseline values following randomization were performed by a 2-way ANOVA. Comparisons of these parameters following infusion were compared using a multi-way ANOVA for repeated measures. Pair-wise comparisons were performed with a Bonferroni adjusted t-test. All statistical analyses were performed using statistical software programs (BMDP Statistical Software Inc. University of California Press, Los Angeles, Calif.)."}, "[2]": {"test_system": "pacing HF preparations (Yorkshire pigs)", "experiment": "Systemic and pulmonary hemodynamics after A1 adenosine receptor antagonist infusion in pacing heart failure pigs (Example 2)", "format": "in vivo, pig", "description": "Four Yorkshire pigs (25-30 kg, male, Hambone Farms, SC) were implanted with a pacemaker (8329, Medtronic, Inc., Minneapolis, Minn.) in order to induce pacing CHF as described above. Ten to 14 days following recovery from the surgical procedure, a baseline echocardiographic study (ATL Ultramark VI, 2.25 MHz transducer, Bothell, Wash.) was performed and pacing initiated at 240 beats/min for 3 weeks. An additional group of 6 normal control animals were cared for in identical fashion with the exception of the pacing protocol. At the conclusion of the 3-week pacing period, the pacemakers were deactivated and echocardiographic studies were used to image the LV from a right parasternal approach. Following the echocardiographic study, the animals were prepared for acute instrumentation and initiation of the study protocol.\nThe pigs were anesthetized (i.v. sufentanyl […], etomidate 0.3 mg/kg) and paralyzed (vecuronium 10 mg, tubocurarine 12 mg). A maintenance infusion of 10 ml/kg/hr of lactated ringer's solution was maintained throughout the protocol. A thermodilution catheter (7.5 Fr, Baxter Healthcare Corp., Irvine, Calif.) was positioned in the pulmonary artery via the right external jugular vein and a large bore catheter (7 Fr) was placed in the left external jugular vein for fluid administration. The carotid artery was exposed and cannulated, and the catheter (7 Fr) was advanced to the aortic root for aortic blood pressure measurements and blood sampling drained.\nFollowing instrumentation and a 10-minute stabilization period, baseline hemodynamics were recorded and digitized. Thermodilution derived cardiac output and ejection fraction were obtained from the pulmonary artery catheter in triplicate. Pulmonary and systemic vascular resistances were computed from the pressure measurements and cardiac output and using standard formulae.\nFollowing instrumentation and collection of baseline measurements, the A1 receptor antagonist (3-[4-(2,6-Dioxo-1,3-dipropyl-2,3,6,7-tetrahydro-1H-purin-8-yl)-bicyclo[2.2.2]oct-1-yl]-propionic acid (BG9928), 1 mg/kg) was infused intravenously. Hemodynamic measurements described in the previous section were repeated at 10, 20, 30, 60, 90, and 120 minutes post infusion.\nComparisons of basal hemodynamics between the control and HF groups were performed using Student's t-test. Time-dependent changes in hemodynamics following A1 block infusion were examined by ANOVA. Pair wise comparisons were performed with a Bonferroni adjusted t-test. All statistical analyses were performed using statistical software programs (BMDP Statistical Software Inc. University of California Press, Los Angeles, Calif.). Results are presented as mean ± standard error of the mean (SEM). Values of p<0.05 were considered to be statistically significant."}, "[3]": {"settings": "BG9719 1 mg/kg infusion, 10-120 min post infusion"}, "[4]": {"settings": "BG9928 1 mg/kg intravenous infusion"}}, "data": [{"smiles": "CCCn1c(=O)c2[nH]c(C3CC4CC3C3OC43)nc2n(CCC)c1=O", "note": "(centres unmarked) [BG9719, 8-(3-Oxa-tricyclo[3.2.1.0^2,4]oct-6-yl)-1,3-dipropyl-3,7-dihydro-purine-2,6-dione]", "values": [{"measurement": "pulmonary vascular resistance (PVR), decrease from baseline", "setting": "[1]; 1 mg/kg intravenous infusion, 10 min post treatment, then returned to baseline levels, p<0.05", "value": 38, "unit": "%"}, {"measurement": "pulmonary artery pressure (PAP), change in words", "setting": "[1]; 1 mg/kg, 30 minutes after treatment, remained depressed", "value": "decreased"}, {"measurement": "pulmonary capillary wedge pressure (PCWP), change in words", "setting": "[1]; 1 mg/kg, 90 minutes after treatment", "value": "decreased"}, {"measurement": "pulmonary capillary wedge pressure (PCWP)", "setting": "[1]; 1 mg/kg, 90 minutes post treatment, p<0.05, mean±SEM", "value": "9 ± 2", "unit": "mmHg"}, {"measurement": "mean pulmonary artery pressure after treatment", "setting": "[1]; 1 mg/kg, from 30 min post treatment, baseline 30±1 mmHg, p<0.05, mean±SEM", "value": "23±3", "unit": "mmHg"}, {"measurement": "systemic vascular resistance, change from baseline", "setting": "[1]; BG9719 1 mg/kg infusion", "value": "No change"}, {"measurement": "cardiac output (CO), change from baseline", "setting": "[1]; [3]", "value": "No change"}, {"measurement": "heart rate (HR), change from baseline", "setting": "[1]; [3]", "value": "No change"}, {"measurement": "mean arterial pressure (MAP), change from baseline", "setting": "[1]; [3]", "value": "No change"}]}, {"smiles": "CCCn1c(=O)c2[nH]c(C34CCC(CCC(=O)O)(CC3)CC4)nc2n(CCC)c1=O", "note": "[BG9928, 3-[4-(2,6-Dioxo-1,3-dipropyl-2,3,6,7-tetrahydro-1H-purin-8-yl)-bicyclo[2.2.2]oct-1-yl]-propionic acid]", "values": [{"measurement": "systemic vascular resistance (SVR), change from baseline", "setting": "[2]; 1 mg/kg intravenous infusion, 10 min post treatment", "value": "no change"}, {"measurement": "pulmonary vascular resistance (PVR), fall from baseline", "setting": "[2]; 1 mg/kg intravenous infusion, 10 min post treatment, p<0.05", "value": 18, "unit": "%"}, {"measurement": "cardiac output, change from baseline", "setting": "[2]; [4]", "value": "No change"}, {"measurement": "heart rate, change from baseline", "setting": "[2]; [4]", "value": "No change"}, {"measurement": "mean arterial pressure, change from baseline", "setting": "[2]; [4]", "value": "No change"}]}]}
